Key:
MDA-MB-453 [1] = test: drug sensitivity score (DSS), in combination with BLU9931 (DSS (weighted AUC score)); higher = more sensitive (stronger viability decrease); extreme values may be limits of the assay; conditions: BLU9931 100 nM; 72 h
Method in brief: (§1)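 Drug sensitivity scores come from a weighted area under a four-parameter logistic fit to percent viability, normalised per plate to control wells. Viability was based on cellular ATP read with CellTiterGlo 2.0 after 72 h at 37 °C, 5% CO2. Each 384-well plate carried FIMM Oncology set compounds in singlicate at five 10-fold dilutions, with 2000 MDA-MB-453 cells per well in medium with or without an FGFR4 inhibitor at 100 nM final.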

MDA-MB-453 [2] = test: drug sensitivity score (DSS), single agent (DSS (weighted AUC score)); higher = more sensitive (stronger viability decrease); extreme values may be limits of the assay; conditions: BLU9931 0 nM; 72 h
Method in brief: as §1

SMILES	drug sensitivity score (MDA-MB-453 [1])	drug sensitivity score (MDA-MB-453 [2])
CCc1cnn2c(NCc3ccc[n+]([O-])c3)cc(N3CCCC[C@H]3CCO)nc12 [Dinaciclib]	21.5	22.1
CC(=O)O[C@@]12CO[C@@H]1C[C@H](O)[C@@]1(C)C(=O)[C@H](O)C3=C(C)[C@@H](OC(=O)[C@H](O)[C@@H](NC(=O)OC(C)(C)C)c4ccccc4)C[C@@](O)([C@@H](OC(=O)c4ccccc4)[C@H]21)C3(C)C [Docetaxel]	14.1	18.3
Cc1ccc(-n2nc(C(C)(C)C)cc2NC(=O)Nc2ccc(OCCN3CCOCC3)c3ccccc23)cc1 [Doramapimod]	1.8	2.3
CN1CCN(c2ccc3nc(-c4c(N)c5c(F)cccc5[nH]c4=O)[nH]c3c2)CC1 [Dovitinib]	0	0
COc1cccc2c1C(=O)c1c(O)c3c(c(O)c1C2=O)C[C@@](O)(C(=O)CO)C[C@@H]3O[C@H]1C[C@H](N)[C@H](O)[C@H](C)O1 [Doxorubicin]	5.1	6.8
C[C@H](Nc1ncnc2nc[nH]c12)c1cc2cccc(Cl)c2c(=O)n1-c1ccccc1 [Duvelisib]	0	0
Cc1ccc(NS(=O)(=O)c2cccc(C#N)c2)c2[nH]cc(C#N)c12 [E7820]	1.1	3.3
Cc1cc(Nc2cc(N3CCN(C)CC3)nc(/C=C/c3ccccc3)n2)n[nH]1 [ENMD-2076]	7.8	7.1
Cc1cc(C)c(CNC(=O)c2cc(-c3ccc(CN4CCOCC4)cc3)cc3c2cnn3C2CCCC2)c(=O)[nH]1 [EPZ-5687]	0	0.5
NC(=O)/C(=C/n1cnc(-c2cc(C(F)(F)F)cc(C(F)(F)F)c2)n1)c1cncnc1 [Eltanexor]	14.2	13.8
CC(C)(O)CNc1nc(Nc2ccnc(C(F)(F)F)c2)nc(-c2cccc(C(F)(F)F)n2)n1 [Enasidenib]	0.1	0
COC(=O)N[C@@H](C)CNc1nccc(-c2cn(C(C)C)nc2-c2cc(Cl)cc(NS(C)(=O)=O)c2F)n1 [Encorafenib]	0	0.2
C[C@@H]1CN(C(=O)c2ccc(NC(=O)c3cc(O[C@H](C)c4c(Cl)ccc(F)c4Cl)c(N)nn3)cc2)C[C@H](C)N1 [Ensartinib]	0	0
Nc1ccccc1NC(=O)c1ccc(CNC(=O)OCc2cccnc2)cc1 [Entinostat]	8.7	9.2
c1cn2cc(-c3ccc4cn[nH]c4c3)nc(Nc3ccc(N4CCOCC4)cc3)c2n1 [Entospletinib]	0	0
CN1CCN(c2ccc(C(=O)Nc3n[nH]c4ccc(Cc5cc(F)cc(F)c5)cc34)c(NC3CCOCC3)c2)CC1 [Entrectinib]	0	0
CNC(=O)c1ccc(N2C(=S)N(c3ccc(C#N)c(C(F)(F)F)c3)C(=O)C2(C)C)cc1F [Enzalutamide]	0	1.3
Cn1cc(C2=C(c3cn(C4CCN(Cc5ccccn5)CC4)c4ccccc34)C(=O)NC2=O)c2ccccc21 [Enzastaurin]	0	0
NS(=O)(=O)NCCNc1nonc1/C(=N/O)Nc1ccc(F)c(Br)c1 [Epacadostat]	0	0
COc1cccc2c1C(=O)c1c(O)c3c(c(O)c1C2=O)C[C@@](O)(C(=O)CO)C[C@@H]3O[C@H]1C[C@H](N)[C@@H](O)[C@H](C)O1 [Epirubicin]	5.9	7.3
CCOc1ccccc1-n1c(C(C)N2CCN(C(=O)COc3ccc(Cl)cc3)CC2)nc2ccccc2c1=O (stereo not given) [Erastin]	5.6	4.1
COc1cc(OC)cc(N(CCNC(C)C)c2ccc3ncc(-c4cnn(C)c4)nc3c2)c1 [Erdafitinib]	0.2	4.3
C=C1C[C@@H]2CC[C@@]34C[C@H]5O[C@H]6[C@@H](O3)[C@H]3O[C@H](CC[C@@H]3O[C@H]6[C@H]5O4)CC(=O)C[C@@H]3[C@@H](OC)[C@@H](C[C@H](O)CN)O[C@H]3C[C@H]3O[C@@H](CC[C@@H]1O2)C[C@@H](C)C3=C [Eribulin]	13.4	15.5
C#Cc1cccc(Nc2ncnc3cc(OCCOC)c(OCCOC)cc23)c1 [Erlotinib]	4.7	2.7
COc1cc([C@@H]2c3cc4c(cc3[C@@H](O[C@@H]3O[C@@H]5CO[C@@H](C)O[C@H]5[C@H](O)[C@H]3O)[C@H]3COC(=O)[C@H]23)OCO4)cc(OC)c1O [Etoposide]	2.9	2.8

— the supplement of paper PMC7224384
